In assay [1] the target is T1, purified PDE1A enzyme (Homo sapiens, UniProt P54750). The experiment in a line: In vitro PDE1A primary screening assay (Cisbio cAMP dynamic htrf kit). The class given is biochemical. The note with it: 100 nM cAMP; for inhibition at 10 µM: read-out: inhibition of PDE1A (control compounds, primary screening). An excerpt:
For the primary screening, an assay using the cAMP dynamic htrf kit from Cisbio (catnr 62AM2PEB) was used. Its principle is based on HTRF® technology (Homogeneous Time-Resolved Fluorescence). The method is a competitive immunoassay between native cAMP and the cAMP labeled with XL665. The tracer binding is visualized by a monoclonal antibody against cAMP, labeled with Cryptate. The specific signal (i.e. energy transfer) is inversely proportional to the concentration of cAMP in the sample (see FIG. 1).
For the enzymatic reaction a mix of 20 μL is made with purified PDE1A enzyme, 100 nM cAMP and the compound (10 μM in a final concentration of 1% DMSO) in a black 384-plate. The reaction buffer is Tris 20 mM pH 7.4, 4 μg/mL calmodulin, 3 mM MgCl2, 1.5 mM CaCl2, 0.2 mg/mL BSA and 0.001% Brij-35. After an incubation of 30 minutes at room temperature, the reaction is stopped by the addition of 10 μL labelled cAMP-XL665 and 10 μL anti-cAMP-Cryptate. After 1 hour incubation at room temperature, the readout is performed on the Envision (excitation 360 nm; emission donor 615 nm emission acceptor 665 nm).
PDE1A hydrolyses cAMP into 5′AMP; this low cAMP concentration will result in a high signal. A PDE1A inhibitor will result in a decrease of the signal.
As a positive control we used 10 μM Vardenafil (100% inhibition), as negative control is used 1% DMSO (0% inhibition), as variable control 10 μM Zaprinast (+/−50% inhibition) is used and as negative control compound 10 μM Ro-20-1724 (0% inhibition). The positive and negative control were used to calculate z′ and PIN values.
All compounds were screened in single at 10 μM. The hit criterium was set at PIN 50 (50% inhibition).

The target in assay [2] is T1, purified PDE1A enzyme. In words: In vitro PDE1A assay, dose response (Biomol Cyclic Nucleotide Phosphodiesterase Assay Kit, colorimetric). It counts as biochemical. The note with it: for IC50: 100 μM cAMP, 45 min at 37° C., 8 points from 20 μM, duplicate. Put shortly: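 Purified PDE1A with 100 μM cAMP and 5′-nucleotidase, incubated 45 min at 37° C in Tris 20 mM pH 7.4 with calmodulin, MgCl2 and CaCl2; released phosphate read by malachite-green absorbance at 615 nm. Duplicate 8-point ⅓ dilutions from 20 μM in 1% DMSO; 10 μM vardenafil defines 100% inhibition.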

SMILES strings stand for the structures.

The inhibition is how much of the control response was suppressed. For `CCCOc1ccccc1-c1nc2nn[nH]c2c(=O)[nH]1` [Zaprinast], the inhibition at 10 µM on purified PDE1A enzyme [1] is roughly 50%. `CCCc1nc(C)c2c(=O)[nH]c(-c3cc(S(=O)(=O)N4CCN(CC)CC4)ccc3OCC)nn12` [Vardenafil, reference compound]: the inhibition at 10 µM on purified PDE1A enzyme [2] (10 μM, read-out: inhibition of PDE1A (positive control, dose response assay)) came out at 100%; on purified PDE1A enzyme [1] it was 100%. In the case of `CCCCOc1cc(CC2CNC(=O)N2)ccc1OC` (stereo not drawn) [Ro-20-1724], the “inhibition of PDE1A (control compounds, primary screening)” value against purified PDE1A enzyme [1] (10 μM) was 0%.

The IC50 is the concentration that inhibits the measured activity by half. A low value points to greater potency. At purified PDE1A enzyme [2], `CCCc1nn(C)c2c(=O)[nH]c(N(C)Cc3nn(C)c4ccccc34)nc12` [Example 35, 1-methyl-5-(methyl((1-methyl-1H-indazol-3-yl)methyl)amino)-3-propyl-1H-pyrazolo[4,3-d]pyrimidin-7(6H)-one] displayed an IC50 greater than 500 nM. Still for that read-out and setting: the result for `CCC(CC)CN(Cc1cccc(N2CCOCC2)c1)c1nc2c(C(C)(C)C)nn(C)c2c(=O)[nH]1` [Example 109, 3-tert-butyl-5-((2-ethylbutyl)(3-morpholinobenzyl)amino)-1-methyl-1H-pyrazolo[4,3-d]pyrimidin-7(6H)-one] reads less than 100 nM; that for `CCCc1nn(C)c2c(=O)[nH]c(N(Cc3cccc(N4CCOCC4)c3)CC(C)CCC)nc12` (stereo not drawn) [Example 113, 1-methyl-5-((2-methylpentyl)(3-morpholinobenzyl)amino)-3-propyl-1H-pyrazolo[4,3-d]pyrimidin-7(6H)-one], less than 100 nM; that for `CN(Cc1ccc(Cl)c(Cl)c1)c1nc2c(C3CCCC3)nn(C)c2c(=O)[nH]1` [Example 77, 3-cyclopentyl-5-((3,4-dichlorobenzyl)(methyl)amino)-1-methyl-1H-pyrazolo[4,3-d]pyrimidin-7(6H)-one], less than 100 nM.

As to `CCCc1nn(C)c2c(=O)[nH]c(N(C)CCC)nc12` [Example 30, 1-methyl-5-(methyl(propyl)amino)-3-propyl-1H-pyrazolo[4,3-d]pyrimidin-7(6H)-one], on purified PDE1A enzyme [2], the IC50 lay within 101 to 500 nM.

For the origin of these results see patent US20080242661A1, “Novel compounds useful for the treatment of degenerative & inflammatory diseases” (priority 2006, published 2008).
